Here are results for 91 compounds from ChEMBL document CHEMBL1131632 (J Med Chem, 1998).

This test has as its target Melatonin receptor (Gallus gallus) (UniProt P49288+P51050+P49285). Particulars: Coturnix.

Take `CC(=O)NCCc1cccc2c1-c1ccoc1C(=O)C2`: the pRA was -2.18. In the case of `CCC(=O)NCCc1cc(OC)ccc1OC` it was -1.42.

Compound `CCC(=O)NCCc1cc(Br)ccc1OC` showed a pRA of -1.08. With `COc1cc2[nH]cc(CCNC(C)=O)c2cc1OC` the figure was -2.12.

As to `CCC(=O)NC1COc2cccc(OC)c2C1` (stereo unspecified), the pRA is -2.89. In the case of `COc1cccc2c1CC(NC(C)=O)CO2` (stereo unspecified) it was -4.16. With `CCC(=O)NCCc1c(OC)ccc2ccc(OC)cc12` the figure was 1; with `COc1cc2c(CCNC(C)=O)c[nH]c2cc1Cl`, -0.3. Regarding `CC(=O)NCCc1c(Br)[nH]c2cc(Br)ccc12`, the pRA is -2.32. With `COc1ccc2ccc(O)c3c2c1CC(NC(C)=O)C3` (stereo unspecified) the figure was -1.84.

Turning to `CCC(=O)NCCCc1cccc(OC)c1`, the pRA is -0.98. With `CCC(=O)NC1CCc2[nH]c3ccc(OC)cc3c2C1` (stereo unspecified) the figure was -1.84; with `CC(=O)NCCc1c[nH]c2ccc(O)cc12`, -3.31; with `CCC(=O)NC1CCc2ccccc2C1` (stereo unspecified), -2.41. In the case of `CCC(=O)NC1CCc2[nH]c3ccccc3c2C1` (stereo unspecified) it was -2.87; in that of `COc1cc2c(CCNC(C)=O)c(C)[nH]c2c(Cl)c1Cl`, 0.4. With `CCC(=O)NCC1CCCc2c1c1ccccc1n2C` (stereo unspecified) the figure was -2.54; with `COc1ccc2[nH]c3ccc(NC(C)=O)cc3c2c1`, -1.8. `COc1ccc2[nH]c(Cc3ccccc3)c(CCNC(C)=O)c2c1` displayed a pRA of -1.5.

Compound `CC(=O)NCCc1cccc2ccccc12` yielded a pRA of -2.68. In the case of `CCC(=O)NC1CCc2cccc(OC)c2C1` (stereo unspecified) it was -1.11; in that of `CC(=O)NCCc1cccc2ccc3c(c12)CCCO3`, -0.37; in that of `COc1ccc(CCNC(C)=O)cc1OC`, -3.17. With `CCOC(=O)c1[nH]c2ccc(OC)c3c2c1C(CNC(C)=O)CC3` (stereo unspecified) the figure was 0.11.

Compound `CCOc1ccc2ccccc2c1CCNC(C)=O` returned a pRA of -0.72.

Turning to `CCC(=O)NCC1Cc2cccc(OC)c2C1` (stereo unspecified), the pRA was -1.22. With `COc1ccc2[nH]cc3c2c1CCC3CNC(C)=O` (stereo unspecified) the figure was -0.65; with `CCC(=O)NCCc1c(Br)[nH]c2cc(Br)ccc12`, -1.66.

For the compound `COc1cccc(CCNC(C)=O)c1`, the pRA was -3.21. In the case of `CC(=O)NCCCc1cccc(Cl)c1` it was -3.03; in that of `CCC(=O)NCCn1ccc2cc(OC)ccc21`, -3.39; in that of `COc1cc2c(CCNC(C)=O)c[nH]c2cc1F`, -0.18. `COc1ccc2[nH]cc(/C=C/NC(C)=O)c2c1` had a pRA of -1.12. With `CC(=O)NCCc1c[nH]c2ccc(OCc3ccccc3)cc12` the figure was -2.85. In the case of `CCC(=O)NCCc1c(-c2ccccc2)[nH]c2ccc(OC)cc12` it was 1.1; in that of `CCC(=O)NCC1CCCc2c1c1cc(OC)ccc1n2C` (stereo unspecified), -0.39. In the case of `CCC(=O)NC1Cc2cccc(OC)c2C1` (stereo unspecified) it was -2.83; in that of `CC(=O)NCCc1cccc2ccc(O)cc12`, -1.65. On to `COc1c2c(cc3ccccc13)CCC(NC(C)=O)C2` (stereo unspecified), for which the pRA was -2.77. In the case of `CCC(=O)NCCCCc1cccc(OC)c1` it was -2.3. With `COc1ccc2cccc3c2c1CC(NC(C)=O)C3` (stereo unspecified) the figure was -1.71; with `COc1ccc2occ(CCNC(C)=O)c2c1`, -0.97.

With `COc1ccc2[nH]c(I)c(CCNC(C)=O)c2c1`, the pRA was 1.7. With `COc1ccc2[nH]c(-c3ccccc3)c(CCNC(C)=O)c2c1` the figure was 1.3; with `COc1ccc2[nH]c(Br)c(CCNC(C)=O)c2c1`, 1.3. In the case of `CC(=O)NCCCc1cccc(Br)c1` it was -3.16; in that of `CC(=O)NCCc1cccc2c1C1=CC=COC1C=C2` (stereo unspecified), -0.18; in that of `COc1cccc2c1CC(CNC(C)=O)C2` (stereo unspecified), -2.12.

The compound `COc1ccc2[nH]c(C)c(CCNC(C)=O)c2c1` showed a pRA of 0.41. In the case of `COc1cc2c(CCNC(C)=O)c[nH]c2cc1O` it was -1.42. In the case of `COc1ccc2ccccc2c1CCNC(C)=O` it was -0.6; in that of `COc1cccc(CCCNC(C)=O)c1`, -2.03. In the case of `CCC(=O)NCCn1c(-c2ccccc2)cc2ccccc21` it was -1.58. As to `COc1ccc2c(CCNC(C)=O)cccc2c1`, the pRA was -2.73. In turn, `CCC(=O)NCCCCc1ccccc1OC` yielded a pRA of -2.76. As to `CC(=O)NC1CCc2[nH]c3ccccc3c2C1` (stereo unspecified), the pRA is -3.96. The compound `CC(=O)NCCc1c(-c2ccccc2)n(C)c2ccccc12` gave a pRA of -2.03. With `CCC(=O)NCCc1cccc(OC)c1` the figure was -2.02; with `COc1cc2ccccc2c2c1CC(NC(C)=O)CC2` (stereo unspecified), -2.56. In the case of `CCC(=O)NCCc1c[nH]c2ccccc12` it was -2.83; in that of `COc1ccc2[nH]ccc2c1CCNC(C)=O`, -2.77. In the case of `COc1ccc2[nH]c3c(c2c1)CC(NC(C)=O)CC3` (stereo unspecified) it was -2.57; in that of `COc1ccc2[nH]c(C3CCCCC3)c(CCNC(C)=O)c2c1`, -0.68; in that of `CCC(=O)NCCc1ccccc1OC`, -2.36.

In turn, `CC(=O)NCCCc1cccc(F)c1` gave a pRA of -3.51. In the case of `COc1ccc(-c2ccccc2)cc1CCNC(C)=O` it was -2.63; in that of `COc1ccc(Br)cc1CCNC(C)=O`, -1.8. In the case of `CC(=O)NC1Cc2cccc3cccc(c23)C1` it was -2.63. Compound `COc1cccc2c1CC(NC(C)=O)CC2` (stereo unspecified) had a pRA of -1.91. With `CCC(=O)NCCc1ccc(OC)c(OC)c1` the figure was -2.34; with `CC(=O)NC1CCc2ccccc2C1` (stereo unspecified), -3.07.

With `COc1ccc2cccc(CCNC(C)=O)c2c1`, the pRA is 0.09.

Regarding `COc1ccc2[nH]c(-c3ccccc3)c(/C=C/NC(C)=O)c2c1`, the pRA amounted to 0.19. The compound `CCC(=O)NCCCc1cccc(F)c1` had a pRA of -3.1.

In the case of `COc1ccc2[nH]cc3c2c1CC(NC(C)=O)C3` (stereo unspecified), the pRA is -2.74. In the case of `CC(=O)NCCc1c(-c2ccccc2)[nH]c2ccccc12` it was -2.23; in that of `COc1cccc2c1CCC(NC(C)=O)C2` (stereo unspecified), -3.53. In the case of `CCC(=O)NCCc1cc(C)ccc1OC` it was -1.98. In the case of `COc1ccc2ccc(OC)c3c2c1CC(NC(C)=O)C3` it was -0.18. `CC(=O)Nc1ccc2[nH]c3ccccc3c2c1`: the pRA is -2.91. With `CCC(=O)NCCn1c(C(=O)OC)cc2ccc(OC)cc21` the figure was 0.42; with `COc1ccccc1CCCNC(C)=O`, -3.38; with `CCc1ccc(OC)c(CCNC(C)=O)c1`, -2.51. With `CCC(=O)NCCn1c(I)cc2cc(OC)ccc21` the figure was -2.22; with `CCC(=O)NCCCc1ccccc1OC`, -2.8. With `CCn1c(-c2ccccc2)c(CCNC(C)=O)c2ccccc21` the figure was -2.42; with `COc1ccc(OC)c(CCNC(C)=O)c1`, -2.02; with `CCC(=O)NCCn1c(-c2ccccc2)cc2ccc(OC)cc21`, 1.7. `COc1ccc2[nH]cc(CCNC(C)=O)c2c1` displayed a pRA of 0. With `CC(=O)NCC1CCCc2c1c1ccccc1n2C` (stereo unspecified), the pRA was -2.59. With `COc1ccc(Cl)c2c1CC(NC(C)=O)CC2` (stereo unspecified) the figure was -2.23.
